Tests used:
[1] = molecular target: T1, α1β2γ2 subtype of the GABA receptor (Rattus norvegicus, UniProt P18508+P62813+P63138); experiment: Electrophysiology: modulation of GABA currents in Xenopus oocytes expressing recombinant GABA-A receptors; format: cell-based; details: 100 μM compound with GABA; α1β2γ2 in oocytes
T1 construct: expressed in transfected cells; host or cells: Xenopus laevis oocytes (cRNA injection)

[2] = molecular target: T2, benzodiazepine-binding site of the GABA-A receptor (Rattus norvegicus, UniProt P18508+P62813); experiment: Displacement of tritiated flunitrazepam from brain membranes; details: 100 μM; tissue not stated; read-out: Inhibition of the tritiated ligands % Flu (100 μM)
T2 construct: IC50 Flu / BZ receptor; other: cerebellum (ce); other: cerebellum (ce; BZ1 subtype); other: 10 μM; cerebellum; other: 100 μM; other: 0.5 μM
T2 sequence (P62813 28-455): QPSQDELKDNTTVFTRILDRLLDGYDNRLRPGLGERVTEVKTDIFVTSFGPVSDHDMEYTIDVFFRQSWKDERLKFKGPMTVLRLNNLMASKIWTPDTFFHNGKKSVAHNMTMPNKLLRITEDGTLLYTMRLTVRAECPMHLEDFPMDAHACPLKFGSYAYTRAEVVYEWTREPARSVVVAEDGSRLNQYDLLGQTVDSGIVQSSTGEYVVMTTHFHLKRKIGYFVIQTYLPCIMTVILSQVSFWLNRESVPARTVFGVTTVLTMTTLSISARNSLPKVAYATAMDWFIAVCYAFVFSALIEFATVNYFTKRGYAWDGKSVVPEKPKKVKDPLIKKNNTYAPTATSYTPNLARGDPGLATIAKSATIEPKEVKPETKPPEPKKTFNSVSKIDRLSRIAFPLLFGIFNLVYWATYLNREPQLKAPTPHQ
T2 sequence (P18508 39-466): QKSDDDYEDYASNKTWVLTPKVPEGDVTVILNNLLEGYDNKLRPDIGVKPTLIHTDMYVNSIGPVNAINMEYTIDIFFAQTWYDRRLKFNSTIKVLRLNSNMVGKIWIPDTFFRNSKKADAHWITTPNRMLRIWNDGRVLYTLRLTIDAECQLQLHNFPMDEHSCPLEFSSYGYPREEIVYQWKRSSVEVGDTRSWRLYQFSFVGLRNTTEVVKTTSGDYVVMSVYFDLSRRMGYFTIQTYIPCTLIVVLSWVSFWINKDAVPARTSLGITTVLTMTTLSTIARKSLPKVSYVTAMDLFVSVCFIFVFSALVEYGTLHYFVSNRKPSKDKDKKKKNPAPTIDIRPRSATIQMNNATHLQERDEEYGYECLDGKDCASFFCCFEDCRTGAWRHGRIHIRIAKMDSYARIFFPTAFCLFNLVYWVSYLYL
T2 sequence (P63138 26-474 partner): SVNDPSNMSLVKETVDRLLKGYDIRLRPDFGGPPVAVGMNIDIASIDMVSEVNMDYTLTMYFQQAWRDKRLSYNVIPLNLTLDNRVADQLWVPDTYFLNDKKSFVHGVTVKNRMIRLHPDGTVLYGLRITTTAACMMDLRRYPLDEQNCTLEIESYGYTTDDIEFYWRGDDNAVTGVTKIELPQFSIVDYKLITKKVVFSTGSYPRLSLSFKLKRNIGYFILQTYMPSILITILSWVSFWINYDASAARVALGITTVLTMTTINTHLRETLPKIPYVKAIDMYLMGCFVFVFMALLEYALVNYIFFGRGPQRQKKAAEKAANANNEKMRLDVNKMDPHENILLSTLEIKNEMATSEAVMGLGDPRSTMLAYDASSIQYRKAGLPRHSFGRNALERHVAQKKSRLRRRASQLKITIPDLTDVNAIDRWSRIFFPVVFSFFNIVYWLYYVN

[3] = molecular target: T3, picrotoxin-binding site of the GABA-A receptor; experiment: Displacement of 35S-TBPS from brain membranes; set-up: species or system rats; details: cerebellum
T3 construct: other: cerebellum

[4] = molecular target: T4, picrotoxin-binding site of the GABA-A receptor; experiment: Displacement of 35S-TBPS from brain membranes; set-up: species or system rats; details: cortex
T4 construct: other: cortex

[5] = system: GABA-binding site of the GABA-A receptor; experiment: Displacement of tritiated muscimol from brain membranes; details: 100 μM
[6] = system: Ro15-4513 binding (GABA-A receptor); experiment: Ro15-4513 displacement; details: 100 μM

T1 sequence (P62813 28-455): as the sequence (P62813 28-455) above
T1 sequence (P63138 25-474 limits assumed): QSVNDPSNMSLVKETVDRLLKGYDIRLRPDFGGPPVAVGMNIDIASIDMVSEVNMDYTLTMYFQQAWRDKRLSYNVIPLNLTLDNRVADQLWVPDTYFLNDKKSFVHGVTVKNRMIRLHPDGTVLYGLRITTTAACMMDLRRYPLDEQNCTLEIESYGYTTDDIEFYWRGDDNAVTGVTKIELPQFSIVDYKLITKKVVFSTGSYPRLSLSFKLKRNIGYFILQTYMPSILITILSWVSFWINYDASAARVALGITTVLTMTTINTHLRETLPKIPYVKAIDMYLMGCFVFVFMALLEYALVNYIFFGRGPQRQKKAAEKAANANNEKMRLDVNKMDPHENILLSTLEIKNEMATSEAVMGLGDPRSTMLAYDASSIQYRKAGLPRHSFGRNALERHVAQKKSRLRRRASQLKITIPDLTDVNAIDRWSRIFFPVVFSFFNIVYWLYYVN
T1 sequence (P18508 39-466): as the sequence (P18508 39-466) above

`O=C1C=C[C@@H]([C@H]2c3ccccc3CCN2C(=S)Oc2ccccc2)O1` (racemic) [Compound 64] was tested, and the “% stimulation of the GABA currents (100 μM)” value [1] was “+265 ± 50%”, the inhibition at 100 µM [2] was 0% and the IC50 [3] was 30 µM. For the same compound, the IC50 [4] was greater than 100 µM, the Displacement of muscimol [5] was “Muscimol: 100 μM = 0% Ro15-4513: 100 μM = 0%” and the Ro15-4513 displacement [6] was “Muscimol: 100 μM = 0% Ro15-4513: 100 μM = 0%”.
